Reference: PubChem BioAssay AID1549 (Sanford-Burnham Center for Chemical Genomics, 2009)
The source made the active and inactive calls. No rule for the calls is given here.

biological target: Influenza A virus M2 proton channel (A/TW/4845/1999 H1N1); assay: NMR binding screen, influenza A virus M2 proton channel, Kd (AID 1549); details: M2 protein

Compound	Kd
CCOC(=O)c1c(-c2ccncc2)csc1N	> 4 mM (inactive)
CN1C2CC[C@@H]1CC(OC(=O)[C@H](CO)c1ccccc1)C2 (stereo partly specified)	> 4 mM (inactive)
C/C(=C\CO)CC[C@H](C)CCC[C@H](C)CCCC(C)C	> 4 mM (inactive)
C=C1C([C@]2(C)C(CC(=O)OC)[C@@](C)(COC(C)=O)OC(=O)C[C@@H]2OC(C)=O)[C@@H](OC=O)[C@H](OC(=O)C(OC(C)=O)C(C)CC)[C@@]2(C)[C@H](c3ccoc3)CC(=O)C12O (stereo partly specified)	> 4 mM (inactive)
CC1C[C@H]2CC(=O)[C@H]3CCCN4CCC[C@H]2[C@]34C1 (stereo partly specified)	> 4 mM (inactive)
Cc1nnc(SCC(N)=O)c2ccccc12	> 4 mM (inactive)
O=C(NCN1CCOCC1)c1cccnc1	> 4 mM (inactive)
O=C(NN1C(=O)c2ccccc2C1=O)c1cccs1	> 4 mM (inactive)
CCOC(=O)C1CCN(c2ncnc3nc[nH]c23)CC1	> 4 mM (inactive)
CN1C(=O)CC(=O)N(C)c2ccccc21	> 4 mM (inactive)
CCOC(=O)C1CCNCC1	> 4 mM (inactive)
Cc1c(-c2ccc(F)cc2)[n+](=O)c2c(n1[O-])CCC2	> 4 mM (inactive)
O=C(O)C1CCN(c2ccc(C(F)(F)F)cn2)CC1	> 4 mM (inactive)
Cc1ccc(C(C)C)cc2c(C)ccc1-2	> 4 mM (inactive)
CC(C)=CCC1=C(O)c2ccccc2C(=O)C1=O	> 4 mM (inactive)
CC(=O)Nc1cccc(NC(=O)c2ccco2)c1	> 4 mM (inactive)
Cc1cc(C(=O)N2CCN(c3ncccn3)CC2)c(C)o1	> 4 mM (inactive)
O=c1c2ccccc2ncn1C1CCCCC1	> 4 mM (inactive)
O=CN1CCN(C(=O)c2ccc(F)cc2)CC1	> 4 mM (inactive)
CN(C)S(=O)(=O)c1ccccc1C#N	> 4 mM (inactive)
O=C1NC(=S)N/C1=C\c1cccnc1	> 4 mM (inactive)
c1ccc(-c2n[nH]c(-c3ccccn3)n2)nc1	> 4 mM (inactive)
CSc1nc(C)c(Oc2ccccc2)c(=O)n1C	> 4 mM (inactive)
Clc1ccccc1-c1nc(-c2cccnc2)no1	> 4 mM (inactive)

Compound	Kd
Oc1cc(O)c2c(c1)O[C@H](c1cc(O)c(O)c(O)c1)[C@H](O)C2	> 4 mM (inactive)
Oc1cc(O)cc(/C=C/c2ccccc2)c1	> 4 mM (inactive)
O=C(OC[C@H]1O[C@H](OC(=O)c2cc(O)c(O)c(OC(=O)c3cc(O)c(O)c(O)c3)c2)[C@H](OC(=O)c2cc(O)c(O)c(OC(=O)c3cc(O)c(O)c(O)c3)c2)[C@@H](OC(=O)c2cc(O)c(O)c(OC(=O)c3cc(O)c(O)c(O)c3)c2)[C@@H]1OC(=O)c1cc(O)c(O)c(OC(=O)c2cc(O)c(O)c(O)c2)c1)c1cc(O)c(O)c(OC(=O)c2cc(O)c(O)c(O)c2)c1	> 4 mM (inactive)
COc1ccc(-c2coc3cc(OC(C)=O)cc(OC(C)=O)c3c2=O)cc1	> 4 mM (inactive)
O=C1NC(=S)N/C1=C\c1cccc([N+](=O)[O-])c1	> 4 mM (inactive)
CC12CCC3C(CC3(C)C)C(C)(CCC1=O)O2 (stereo unspecified)	> 4 mM (inactive)
OCc1cccc2nonc12	> 4 mM (inactive)
Cn1ccnc1SCc1cc(=O)[nH]c2ccccc12	> 4 mM (inactive)
CC(=O)Nc1nnc(-c2ccncc2)s1	> 4 mM (inactive)
CC12CN(CC#N)CC(C)(CN(CC#N)C1)C2=O	> 4 mM (inactive)
CN(C(=O)c1cc2cccnc2n(C)c1=O)c1ccccc1	> 4 mM (inactive)
O=C(O)C(O)C(O)C(O)C(O)C(=O)O (stereo unspecified)	> 4 mM (inactive)
NCc1ccc(-c2csnn2)cc1	> 4 mM (inactive)
c1ccc(CCNc2ncnc3nc[nH]c23)cc1	> 4 mM (inactive)
CCOC(=O)c1c(C)nc2ccccn12	> 4 mM (inactive)
CC1=NCCc2c1[nH]c1cc(O)ccc21	> 4 mM (inactive)
COc1cc([C@@H]2c3cc4c(cc3[C@H](OC(C)=O)[C@H]3COC(=O)[C@@H]23)OCO4)cc(OC)c1OC	> 4 mM (inactive)
Cc1cc(C(=O)Nc2sc(C)c(C)c2C#N)no1	> 4 mM (inactive)
CCSc1nc2ccccc2n1CC(N)=O	> 4 mM (inactive)
c1cncc(C2CCCCN2)c1 (stereo unspecified)	> 4 mM (inactive)
CCOC(=O)c1c(C)n([O-])c2ccccc2[n+]1=O	> 4 mM (inactive)
COc1cc(C(C)=O)ccc1OC(=O)N1CCOCC1	> 4 mM (inactive)
Cc1ccc(F)cc1NC(=O)c1ccc2c(c1)OCO2	> 4 mM (inactive)
O=C(O)CSCc1ccc(Cl)cc1	> 4 mM (inactive)

Compound	Kd
O=C(O)CSc1cccc2cccnc12	> 4 mM (inactive)
COC(=O)c1cncn1C	> 4 mM (inactive)
COc1ccc(NC(=O)CCCC(=O)O)c(OC)c1	> 4 mM (inactive)
Cc1cc(C(=O)NCc2cccs2)c(C)o1	> 4 mM (inactive)
COc1ccc(C(=O)NC2=NCCS2)cc1OC	> 4 mM (inactive)
Cc1ncc(CC(=O)O)s1	> 4 mM (inactive)
CC(=O)NC12CC3CC(CC(O)(C3)C1)C2	> 4 mM (inactive)
CC1(O)CC2C=CC1C2 (stereo unspecified)	> 4 mM (inactive)
Cc1cccnc1NC1=NCC(C)S1 (stereo unspecified)	> 4 mM (inactive)
O=C(NCc1ccccn1)c1ccccc1Cl	> 4 mM (inactive)
Cc1cc(O)c(C=O)c(O)c1C(=O)O	> 4 mM (inactive)
Cc1nnc(SCc2ccccc2)[nH]c1=O	> 4 mM (inactive)
Cc1ccc(/C=N/n2c(C)nnc2C)cc1	> 4 mM (inactive)
NC(=O)c1cc(N)ccc1N1CCCCC1	> 4 mM (inactive)
N=Nc1c(O)[nH]c2ccccc12	> 4 mM (inactive)
Cc1cc(C(=O)NCc2cccnc2)no1	> 4 mM (inactive)
O=C(CCc1ccc(O)cc1)c1c(O)cc(O)cc1O[C@@H]1O[C@H](CO)[C@@H](O)[C@H](O)[C@H]1O	> 4 mM (inactive)
COc1ccc(-c2cc(=O)c3c(OC)c(OC)c(OC)c(OC)c3o2)cc1	> 4 mM (inactive)
CN1CCC(N(C)Cc2cccnc2)CC1	> 4 mM (inactive)
O=C(CN1C(=O)c2cccc3cccc(c23)C1=O)NO	> 4 mM (inactive)
Cc1c(F)cccc1NS(=O)(=O)c1ccccc1C#N	> 4 mM (inactive)
OCc1ccc2ncccc2c1	> 4 mM (inactive)
CN(C)C(=O)CCNS(=O)(=O)c1ccccc1	> 4 mM (inactive)
O=c1ccc2cc(O)c(O)cc2o1	> 4 mM (inactive)

Compound	Kd
CCOc1ccc(Cl)cc1S(=O)(=O)N1CCCC1	> 4 mM (inactive)
COc1ccc(/C=C2/SC(N)=NC2=O)c(OC)c1	> 4 mM (inactive)
COc1ccc2[nH]c(O)c(NC(C)=O)c2c1	> 4 mM (inactive)
COc1ccc(C[C@H]2NC[C@H](O)[C@H]2OC(C)=O)cc1	> 4 mM (inactive)
Fc1cccc(F)c1CN1CCN(c2ncccn2)CC1	> 4 mM (inactive)
CNc1nc(N)c(C(=O)C(C)(C)C)s1	> 4 mM (inactive)
OCC1CNc2ccccc2O1 (stereo unspecified)	> 4 mM (inactive)
OCc1ccc(Oc2ccccc2)nc1	> 4 mM (inactive)
CC1(C)CCC(C)(C)c2cc(C(=O)O)ccc21	> 4 mM (inactive)
O=C1CSC(=Nc2cccc(C(=O)O)c2)N1	> 4 mM (inactive)
NC(=O)c1cccc2c1OCCO2	> 4 mM (inactive)
CCOC(=O)Cn1cnc2sc3c(c2c1=O)CCC3	> 4 mM (inactive)
NC(=O)C1(S(=O)(=O)c2ccccc2)CC1	> 4 mM (inactive)
Cc1cc(NC(=O)c2ocnc2C)no1	> 4 mM (inactive)
O=C(NCc1cccs1)c1nc2ncccn2n1	> 4 mM (inactive)
O=C1CCC(=O)N1c1ccc(O)cc1	> 4 mM (inactive)
Cc1ccc2c(c1)CCCN2C(=O)c1c(C)noc1C	> 4 mM (inactive)
CCC(=O)NC(=S)Nc1ccc(N2CCOCC2)cc1	> 4 mM (inactive)
Cc1cc(C(=O)NC(C)c2ccncc2)cs1 (stereo unspecified)	> 4 mM (inactive)
O=C(O)c1ccnn1-c1ccccc1	> 4 mM (inactive)
CCCSc1nnc2[nH]c(=O)cc(N)n12	> 4 mM (inactive)
Nc1ccc2c(c1)OCO2	> 4 mM (inactive)
CC(=O)NC1=NN(c2ccccc2)C(=O)C1	> 4 mM (inactive)
O=C(Cc1c(F)cccc1Cl)Nc1cccnc1	> 4 mM (inactive)

Compound	Kd
CC1(C)C=Cc2c(cc3occ(-c4ccc5c(c4)OCO5)c(=O)c3c2O)O1	> 4 mM (inactive)
CCN(CC)S(=O)(=O)c1cccc2nsnc12	> 4 mM (inactive)
Cc1cc(OC(=O)c2c(C)cc(O)cc2O)cc(O)c1C(=O)O	> 4 mM (inactive)
CCCCCCCCCCCCCCC(C(=O)O)C(O)(CC(=O)OC)C(=O)O (stereo unspecified)	> 4 mM (inactive)
COc1cccc(-c2nn(-c3ccccc3)cc2CO)c1	> 4 mM (inactive)
CCCOn1nnnc1-c1ccccc1	> 4 mM (inactive)
O=C(CSc1ccnc(=O)[nH]1)NCc1ccccc1	> 4 mM (inactive)
c1ccc(-c2nsc(N3CCNCC3)n2)cc1	> 4 mM (inactive)
Nn1c(CN2CCCCC2)nc2ccccc2c1=O	> 4 mM (inactive)
COC(=O)C[C@@H]1C2(C)C(=O)[C@@H](CC3=C4C=C(OC)O[C@@H](c5ccoc5)[C@]4(C)CCC32)[C@H](O)C1(C)C (stereo partly specified)	> 4 mM (inactive)
COC(=O)C[C@@H]1C2(C)C(=O)[C@@H](CC3C2CC[C@]2(C)C3CC(=O)O[C@H]2c2ccoc2)[C@H](OC(C)=O)C1(C)C (stereo partly specified)	> 4 mM (inactive)
COC(=O)C1Cc2ccccc2N1 (stereo unspecified)	> 4 mM (inactive)
CCOC(=O)c1cc(C)n(C)n1	> 4 mM (inactive)
CCCCCC/C=C\CCCCCCCc1cccc(O)c1C(=O)O	> 4 mM (inactive)
Nc1nc(=S)n2c(n1)oc1ccccc12	> 4 mM (inactive)
COc1ccc(Cc2nccc3cc(OC)c(OC)cc23)cc1OC	> 4 mM (inactive)
CC(=O)c1ccc(NC(=S)N2CCC(O)CC2)cc1	> 4 mM (inactive)
CCOc1cc(S(=O)(=O)N2CCOCC2)ccc1F	> 4 mM (inactive)
Nc1ccc2c(c1)C(=O)OC2	> 4 mM (inactive)
CCC(=O)Nc1ccccc1NC(C)=O	> 4 mM (inactive)
